Assay [1] has as its system HCT-116 cells. Nature of the assay: Inhibition of sphere-forming ability of cancer cells (Test Example 1). Format: cell-based. To be noted: Homo sapiens, 96 h; HCT-116 spheres, non-adherent, serum-free, 4 days, CellTiter-Glo; read-out: Sphere IC50 value (concentration for 50% inhibition of cell proliferation). As for the experimental part: (§1) HCT-116 cells were available from the American Type Culture Collection (ATCC). HCT-116 cells were cultured at 37° C. and 5% CO2 using the McCoy's 5a medium containing 10% fetal bovine serum (FBS) and 1% penicillin/streptomycin. […] The test compounds were added into each well to adjust the final concentration of DMSO to 0.1%, and the cells were cultured for 4 days.
On the technique in general: ATP-based viability assays read luminescence as a measure of living cells.

Assay [2] has as its system HCT-116 cells. Nature of the assay: Test for inhibiting sphere-forming ability of cancer cells in the presence of BSA (Test Example 2). To be noted: Homo sapiens, 96 h; HCT-116 spheres, 5% bovine serum albumin (BSA), 4 days, CellTiter-Glo; read-out: Sphere IC50 value (concentration for 50% inhibition of cell proliferation). Format: cell-based. As for the experimental part:
as §1

With `O=C(Nc1cn(Cc2cccc(C(F)(F)F)c2)cn1)c1cnc(CO)s1` [Example 40, 2-(Hydroxymethyl)-N-{1-[3-(trifluoromethyl)benzyl]-1H-imidazol-4-yl}-1,3-thiazole-5-carboxamide], the IC50 with HCT-116 cells [1] was found to be 0.122 µM; in the assay on HCT-116 cells [2], 0.629 µM.
With `O=C(Nc1cn(Cc2cc(F)c(F)c(F)c2)cn1)c1cnc(CO)c(Cl)c1` [Example 41, 5-Chloro-6-(hydroxymethyl)-N-[1-(3,4,5-trifluorobenzyl)-1H-imidazol-4-yl]nicotinamide], the IC50 was 0.051 µM with HCT-116 cells [1] and 0.059 µM in the assay with HCT-116 cells [2].
Take `Cc1cc(C(=O)Nc2cn(Cc3cccc(C(F)(F)F)c3)cn2)cnc1CO` [Example 42, 6-(Hydroxymethyl)-5-methyl-N-{1-[3-(trifluoromethyl)benzyl]-1H-imidazol-4-yl}nicotinamide]: the results for the IC50 in the assay on HCT-116 cells [1] and in the assay with HCT-116 cells [2] were < 0.01 µM and 0.06 µM, respectively.
As for `C=Cc1cc(C(=O)Nc2cn(Cc3cccc(C(F)(F)F)c3)cn2)cnc1CO` [Example 43, 5-Ethenyl-6-(hydroxymethyl)-N-{1-[3-(trifluoromethyl)benzyl]-1H-imidazol-4-yl}nicotinamide], the IC50 in the assay on HCT-116 cells [1] came out at 5.6 µM; in the assay with HCT-116 cells [2], 6.51 µM.
In the case of `CCc1cc(C(=O)Nc2cn(Cc3cccc(C(F)(F)F)c3)cn2)cnc1CO` [Example 44, 5-Ethyl-6-(hydroxymethyl)-N-{1-[3-(trifluoromethyl)benzyl]-1H-imidazol-4-yl}nicotinamide], the IC50 in the assay on HCT-116 cells [1] stood at 0.758 µM; with HCT-116 cells [2] it was 5.11 µM.
As for `Cc1sc(C(=O)Nc2cn(Cc3cc(F)c(F)c(F)c3)cn2)nc1CO` [Example 47, 4-(Hydroxymethyl)-5-methyl-N-[1-(3,4,5-trifluorobenzyl)-1H-imidazol-4-yl]-1,3-thiazole-2-carboxamide], the IC50 with HCT-116 cells [1] was determined as 0.669 µM; with HCT-116 cells [2] it was 5.46 µM.
In the same order, the values of `Cc1nc(C(=O)Nc2cn(Cc3cc(F)c(F)c(F)c3)cn2)sc1CO` [Example 48, 5-(Hydroxymethyl)-4-methyl-N-[1-(3,4,5-trifluorobenzyl)-1H-imidazol-4-yl]-1,3-thiazole-2-carboxamide] are 0.095 µM and 0.571 µM.
Take `O=C(/C=C/c1ccc(CO)nc1)Nc1cn(Cc2cccc(C(F)(F)F)c2)cn1` [Example 51]: the IC50 was determined as 0.07 µM with HCT-116 cells [1] and 0.63 µM with HCT-116 cells [2].
The matching figures for `O=C(/C=C/c1cnc(CO)c(Cl)c1)Nc1cn(Cc2cccc(C(F)(F)F)c2)cn1` [Example 52]: 0.05 µM and 0.41 µM.
With `CC(C)(O)c1ccc(/C=C/C(=O)Nc2cn(Cc3cccc(C(F)(F)F)c3)cn2)cn1` [Example 53, (2E)-3-[6-(2-Hydroxypropan-2-yl)pyridin-3-yl]-N-{1-[3-(trifluoromethyl)benzyl]-1H-imidazol-4-yl}prop-2-enamide], the results for the IC50 in the assay on HCT-116 cells [1] and in the assay on HCT-116 cells [2] were 7.2 µM and < 10 µM, respectively.
In the same order, the values of `O=C(Nc1cn(Cc2ccc(F)c(F)c2)cn1)c1cnc(CO)c(C(F)F)c1` [Example 54, N-[1-(3,4-difluorobenzyl)-1H-imidazol-4-yl]-5-(difluoromethyl)-6-(hydroxymethyl)nicotinamide] are 0.148 µM and 0.603 µM.
The matching figures for `O=C(Nc1cn(Cc2cccc(Cl)c2)cn1)c1cnc(CO)c(C(F)F)c1` [Example 55, N-[1-(3-chlorobenzyl)-1H-imidazol-4-yl]-5-(difluoromethyl)-6-(hydroxymethyl)nicotinamide]: 0.075 µM and 0.619 µM.
Take `O=C(Nc1cn(Cc2ccc(F)c(C(F)(F)F)c2)cn1)c1cnc(CO)c(C(F)F)c1` [Example 57, 5-(difluoromethyl)-N-{1-[4-fluoro-3-(trifluoromethyl)benzyl]-1H-imidazol-4-yl}-6-(hydroxymethyl)nicotinamide]: the IC50 in the assay with HCT-116 cells [1] was < 0.01 µM; in the assay on HCT-116 cells [2], 0.05 µM.
For `O=C(Nc1cn(Cc2cccc(Br)c2)cn1)c1cnc(CO)c(C(F)F)c1` [Example 58, N-[1-(3-bromobenzyl)-1H-imidazol-4-yl]-5-(difluoromethyl)-6-(hydroxymethyl)nicotinamide], the IC50 in the assay with HCT-116 cells [1] came to 0.07 µM; in the assay on HCT-116 cells [2] it was 0.08 µM.
In the same order, the values of `O=C(Nc1cn(Cc2cc(F)cc(C(F)(F)F)c2)cn1)c1cnc(CO)c(C(F)F)c1` [Example 60, 5-(difluoromethyl)-N-{1-[3-fluoro-5-(trifluoromethyl)benzyl]-1H-imidazol-4-yl}-6-(hydroxymethyl)nicotinamide] are 0.03 µM and 0.06 µM.
Take `O=C(Nc1cn(Cc2ccc(F)c(Cl)c2)cn1)c1cnc(CO)c(C(F)F)c1` [Example 61, N-[1-(3-chloro-4-fluorobenzyl)-1H-imidazol-4-yl]-5-(difluoromethyl)-6-(hydroxymethyl)nicotinamide]: the values for the IC50 in the assay on HCT-116 cells [1] and with HCT-116 cells [2] were < 0.01 µM and 0.03 µM, respectively.
`O=C(Nc1cn(Cc2ccc(F)c(Br)c2)cn1)c1cnc(CO)c(C(F)F)c1` [Example 62, N-[1-(3-bromo-4-fluorobenzyl)-1H-imidazol-4-yl]-5-(difluoromethyl)-6-(hydroxymethyl)nicotinamide]: the IC50 was < 0.01 µM in the assay with HCT-116 cells [1] and 0.05 µM in the assay on HCT-116 cells [2].
`Cc1cccc(Cn2cnc(NC(=O)c3cnc(CO)c(C(F)F)c3)c2)c1` [Example 63, 5-(difluoromethyl)-6-(hydroxymethyl)-N-[1-(3-methylbenzyl)-1H-imidazol-4-yl]nicotinamide]: the IC50 with HCT-116 cells [1] came out at 0.69 µM; in the assay on HCT-116 cells [2], 0.6 µM.
The matching figures for `COc1cc(Cn2cnc(NC(=O)c3cnc(CO)c(C(F)F)c3)c2)cc(C(F)(F)F)c1` [Example 65, 5-(difluoromethyl)-6-(hydroxymethyl)-N-{1-[3-methoxy-5-(trifluoromethyl)benzyl]-1H-imidazol-4-yl}nicotinamide]: 0.63 µM and 0.66 µM.
In the case of `O=C(Nc1cn(Cc2ccc(Cl)c(F)c2)cn1)c1cnc(CO)c(C(F)F)c1` [Example 66, N-[1-(4-chloro-3-fluorobenzyl)-1H-imidazol-4-yl]-5-(difluoromethyl)-6-(hydroxymethyl)nicotinamide], the IC50 in the assay on HCT-116 cells [1] turned out to be 0.07 µM; in the assay with HCT-116 cells [2] it was 0.06 µM.
In the case of `O=C(Nc1cn(Cc2ccc(Br)c(F)c2)cn1)c1cnc(CO)c(C(F)F)c1` [Example 67, N-[1-(4-bromo-3-fluorobenzyl)-1H-imidazol-4-yl]-5-(difluoromethyl)-6-(hydroxymethyl)nicotinamide], the IC50 in the assay on HCT-116 cells [1] amounted to 0.04 µM; in the assay with HCT-116 cells [2] it was 0.07 µM.
With `Cc1ccc(Cn2cnc(NC(=O)c3cnc(CO)c(C(F)F)c3)c2)cc1C(F)(F)F` [Example 70, 5-(difluoromethyl)-6-(hydroxymethyl)-N-{1-[4-methyl-3-(trifluoromethyl)benzyl]-1H-imidazol-4-yl}nicotinamide], the IC50 with HCT-116 cells [1] is < 0.01 µM; in the assay with HCT-116 cells [2], 0.06 µM.
In the same order, the values of `O=C(Nc1cn(Cc2ccc(Cl)c(Cl)c2)cn1)c1cnc(CO)c(C(F)F)c1` [Example 71, N-[1-(3,4-dichlorobenzyl)-1H-imidazol-4-yl]-5-(difluoromethyl)-6-(hydroxymethyl)nicotinamide] are < 0.01 µM and 0.06 µM.
The matching figures for `O=C(Nc1cn(Cc2ccc(C(F)(F)F)c(F)c2)cn1)c1cnc(CO)c(C(F)F)c1` [Example 74, 5-(difluoromethyl)-N-{1-[3-fluoro-4-(trifluoromethyl)benzyl]-1H-imidazol-4-yl}-6-(hydroxymethyl)nicotinamide]: 0.38 µM and 0.67 µM.
Consider `O=C(Nc1cn(Cc2cc(Cl)cc(Cl)c2)cn1)c1cnc(CO)c(C(F)F)c1` [Example 75, N-[1-(3,5-dichlorobenzyl)-1H-imidazol-4-yl]-5-(difluoromethyl)-6-(hydroxymethyl)nicotinamide], for which the IC50 in the assay with HCT-116 cells [1] was < 0.01 µM; in the assay on HCT-116 cells [2] it was 0.05 µM.
Consider `O=C(Nc1cn(Cc2cc(F)cc(Br)c2)cn1)c1cnc(CO)c(C(F)F)c1` [Example 76, N-[1-(3-bromo-5-fluorobenzyl)-1H-imidazol-4-yl]-5-(difluoromethyl)-6-(hydroxymethyl)nicotinamide], for which the results for the IC50 with HCT-116 cells [1] and in the assay with HCT-116 cells [2] were 0.05 µM and 0.06 µM, respectively.
In the same order, the values of `O=C(Nc1cn(Cc2cc(F)cc(Cl)c2)cn1)c1cnc(CO)c(C(F)F)c1` [Example 78, N-[1-(3-chloro-5-fluorobenzyl)-1H-imidazol-4-yl]-5-(difluoromethyl)-6-(hydroxymethyl)nicotinamide] are 0.05 µM and 0.06 µM.
As for `O=C(Nc1cn(Cc2cc(F)cc(F)c2)cn1)c1cnc(CO)c(C(F)F)c1` [Example 79, N-[1-(3,5-difluorobenzyl)-1H-imidazol-4-yl]-5-(difluoromethyl)-6-(hydroxymethyl)nicotinamide], the IC50 with HCT-116 cells [1] turned out to be 0.08 µM; in the assay with HCT-116 cells [2] it was 0.06 µM.
In the same order, the values of `O=C(Nc1cn(Cc2cc(F)c(F)c(F)c2)cn1)c1ccc(CO)nn1` [Example 85, 6-(Hydroxymethyl)-N-[1-(3,4,5-trifluorobenzyl)-1H-imidazol-4-yl]pyridazine-3-carboxamide] are 0.02 µM and 0.03 µM.

The record behind these values is patent US11661397B2, “1,4-disubstituted imidazole derivative” (Sumitomo Pharma Co., Ltd., priority 2015, dated 2023).
